Laboratory results taken from ChEMBL document CHEMBL1124446, “Synthesis of some novel potent and selective catechol O-methyltransferase inhibitors” (J Med Chem, 1989).

What was measured:
[1] = target: T1, Catechol O-methyltransferase (Rattus norvegicus, UniProt P22734); experiment: In vitro inhibitory activity against catechol O-methyltransferase of rat brain using 3,4-dihydroxybenzoic acid as the substrate.
T1 sequence (P22734 whole entry): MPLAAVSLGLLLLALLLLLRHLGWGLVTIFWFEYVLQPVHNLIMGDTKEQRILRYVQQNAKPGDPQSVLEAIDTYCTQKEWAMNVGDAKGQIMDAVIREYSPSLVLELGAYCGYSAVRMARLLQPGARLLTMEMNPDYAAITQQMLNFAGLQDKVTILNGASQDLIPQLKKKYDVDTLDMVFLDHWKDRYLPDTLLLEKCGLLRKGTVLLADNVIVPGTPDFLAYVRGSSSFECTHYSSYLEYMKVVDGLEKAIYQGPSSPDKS

[2] = Inhibitory activity against Phenol sulfotransferase
Rattus norvegicus [3] = experiment: Inhibition of formation of 3OMD in rat serum by 80 %, when compound was administered in combination with L-Dopa and carbidopa; type: functional
Rattus norvegicus [4] = organism: Rattus norvegicus; experiment: Compound was tested for acute oral toxicity in Wistar rats; type: organism-based; conditions: in vivo
Tyrosine 3-monooxygenase = target: T2, Tyrosine 3-monooxygenase (Bos taurus, UniProt P17289); experiment: Inhibitory activity against the tyrosine hydroxylase
T2 sequence (P17289 whole entry): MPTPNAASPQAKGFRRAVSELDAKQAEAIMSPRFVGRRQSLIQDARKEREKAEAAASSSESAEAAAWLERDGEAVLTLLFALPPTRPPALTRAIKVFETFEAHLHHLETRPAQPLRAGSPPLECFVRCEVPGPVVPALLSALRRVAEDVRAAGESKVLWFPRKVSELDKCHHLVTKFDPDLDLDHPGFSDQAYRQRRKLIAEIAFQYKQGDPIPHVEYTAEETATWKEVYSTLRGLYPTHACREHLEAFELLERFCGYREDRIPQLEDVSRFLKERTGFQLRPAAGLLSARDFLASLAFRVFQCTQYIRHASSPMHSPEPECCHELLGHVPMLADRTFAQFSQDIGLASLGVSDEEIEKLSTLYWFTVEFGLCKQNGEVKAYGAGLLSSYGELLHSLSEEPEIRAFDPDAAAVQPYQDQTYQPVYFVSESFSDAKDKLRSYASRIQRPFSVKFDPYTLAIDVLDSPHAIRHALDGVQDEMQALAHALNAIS

[5] = target: T3, Amine oxidase [flavin-containing] A (Mus musculus, UniProt Q64133); experiment: Inhibitory activity against the Monoamine oxidase A
T3 sequence (Q64133 whole entry): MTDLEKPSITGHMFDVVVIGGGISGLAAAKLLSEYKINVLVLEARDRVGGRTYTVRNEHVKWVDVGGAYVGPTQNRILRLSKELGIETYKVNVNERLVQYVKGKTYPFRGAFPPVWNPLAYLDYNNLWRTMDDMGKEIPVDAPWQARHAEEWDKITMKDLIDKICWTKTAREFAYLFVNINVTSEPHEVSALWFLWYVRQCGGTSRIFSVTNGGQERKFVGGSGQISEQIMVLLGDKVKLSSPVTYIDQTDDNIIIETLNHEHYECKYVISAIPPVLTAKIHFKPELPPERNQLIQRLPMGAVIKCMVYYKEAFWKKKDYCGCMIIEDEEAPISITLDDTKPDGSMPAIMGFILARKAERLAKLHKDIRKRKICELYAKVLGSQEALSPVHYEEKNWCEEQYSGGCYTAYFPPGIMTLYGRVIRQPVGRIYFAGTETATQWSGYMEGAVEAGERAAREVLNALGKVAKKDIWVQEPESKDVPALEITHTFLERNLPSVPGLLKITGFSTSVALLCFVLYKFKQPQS

[6] = target: T4, Aromatic-L-amino-acid decarboxylase (Sus scrofa, UniProt P80041); experiment: Inhibitory activity against the dopamine decarboxylase
T4 sequence (P80041 whole entry): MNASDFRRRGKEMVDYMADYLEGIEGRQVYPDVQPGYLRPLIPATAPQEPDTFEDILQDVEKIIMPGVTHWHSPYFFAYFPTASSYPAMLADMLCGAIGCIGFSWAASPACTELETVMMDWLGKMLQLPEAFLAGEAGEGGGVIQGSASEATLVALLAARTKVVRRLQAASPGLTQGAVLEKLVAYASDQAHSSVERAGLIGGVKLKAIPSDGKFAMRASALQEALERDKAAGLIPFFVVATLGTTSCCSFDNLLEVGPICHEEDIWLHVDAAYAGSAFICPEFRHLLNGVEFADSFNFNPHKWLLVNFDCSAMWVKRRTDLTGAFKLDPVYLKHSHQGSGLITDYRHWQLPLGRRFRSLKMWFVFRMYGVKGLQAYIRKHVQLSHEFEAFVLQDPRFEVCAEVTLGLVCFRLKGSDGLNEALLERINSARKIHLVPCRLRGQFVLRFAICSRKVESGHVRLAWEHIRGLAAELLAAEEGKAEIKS

[7] = target: T5, Dopamine beta-hydroxylase (Homo sapiens, UniProt P09172); experiment: Inhibitory activity against the dopamine beta hydroxylase
T5 sequence (P09172 whole entry): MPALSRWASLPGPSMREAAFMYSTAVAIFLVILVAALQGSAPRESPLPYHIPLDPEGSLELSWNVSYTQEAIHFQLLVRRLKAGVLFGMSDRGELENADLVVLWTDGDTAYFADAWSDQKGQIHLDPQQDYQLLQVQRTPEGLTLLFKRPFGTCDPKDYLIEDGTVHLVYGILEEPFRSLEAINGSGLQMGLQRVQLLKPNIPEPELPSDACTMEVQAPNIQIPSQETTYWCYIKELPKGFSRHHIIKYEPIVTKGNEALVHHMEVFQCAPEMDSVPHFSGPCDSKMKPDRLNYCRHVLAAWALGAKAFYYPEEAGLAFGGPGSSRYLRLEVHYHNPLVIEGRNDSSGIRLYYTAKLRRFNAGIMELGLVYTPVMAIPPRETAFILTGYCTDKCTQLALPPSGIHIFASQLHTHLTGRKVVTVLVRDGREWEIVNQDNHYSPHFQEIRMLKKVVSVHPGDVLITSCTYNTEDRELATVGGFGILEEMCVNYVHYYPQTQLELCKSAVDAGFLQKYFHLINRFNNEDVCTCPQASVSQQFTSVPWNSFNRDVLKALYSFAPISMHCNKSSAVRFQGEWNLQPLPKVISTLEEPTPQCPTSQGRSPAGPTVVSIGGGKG

[8] = target: T6, Amine oxidase [flavin-containing] B (Rattus norvegicus, UniProt P19643); experiment: Inhibitory activity against the Monoamine oxidase B
T6 sequence (P19643 whole entry): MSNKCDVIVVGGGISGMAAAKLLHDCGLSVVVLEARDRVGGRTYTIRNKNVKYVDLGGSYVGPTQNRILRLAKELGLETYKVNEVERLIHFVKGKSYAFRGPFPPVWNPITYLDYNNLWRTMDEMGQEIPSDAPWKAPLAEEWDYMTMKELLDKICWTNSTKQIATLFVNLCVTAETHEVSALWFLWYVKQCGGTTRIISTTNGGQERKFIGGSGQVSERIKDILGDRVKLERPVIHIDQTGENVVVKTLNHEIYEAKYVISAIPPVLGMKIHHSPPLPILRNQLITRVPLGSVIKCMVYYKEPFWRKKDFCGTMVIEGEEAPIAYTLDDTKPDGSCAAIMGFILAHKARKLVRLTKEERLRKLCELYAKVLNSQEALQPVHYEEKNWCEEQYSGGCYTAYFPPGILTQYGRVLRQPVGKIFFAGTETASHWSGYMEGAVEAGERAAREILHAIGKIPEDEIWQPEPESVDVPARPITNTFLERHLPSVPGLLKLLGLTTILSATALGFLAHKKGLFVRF

SMILES | IC50 [1] [nM] | other results
CC(=O)C(=Cc1cc(O)c(O)c(C(F)(F)F)c1)C(C)=O | 1500 | –
CC(=O)C(=Cc1cc(O)c(O)c([N+](=O)[O-])c1)C(C)=O [NITECAPONE] | 18 | IC50 [2]: 210000 nM; Oral dose (Rattus norvegicus [3]): 30 mg/kg; Toxicity (Rattus norvegicus [4]): 2500 mg/kg
CC(=O)c1cc(O)c(O)c([N+](=O)[O-])c1 | 16 | IC50 [2]: 125000 nM
O=Cc1cc(O)c(O)c(C=O)c1 | 160 | –
O=[N+]([O-])c1cc(CO)cc(O)c1O | 180 | –
O=Cc1cc(O)c(O)c([N+](=O)[O-])c1 [3,4-DIHYDROXY-5-NITROBENZALDEHYDE] | 24 | –
N#CC(C#N)=Cc1cc(O)c(O)c([N+](=O)[O-])c1 | 20 | –
O=C(NC12CC3CC(CC(C3)C1)C2)c1cc(O)c(O)cc1[N+](=O)[O-] | 1100 | –
O=C(NC12CC3CC(CC(C3)C1)C2)c1cc(O)c(O)c([N+](=O)[O-])c1 | 19 | –
O=[N+]([O-])c1cc(Cl)cc(O)c1O | 25 | –
CCOC(=O)/C(C#N)=C/c1cc(O)c(O)c([N+](=O)[O-])c1 | 50 | –
O=C(/C=C/c1cc(O)c(O)c([N+](=O)[O-])c1)c1ccccc1 | 6 | IC50 (Tyrosine 3-monooxygenase): 50000 nM; IC50 [5]: > 50000 nM; IC50 [6]: > 50000 nM; IC50 [7]: > 50000 nM; IC50 [8]: > 50000 nM
O=C(O)CCCCc1cc(O)c(O)c(Cl)c1 | 8000 | –
COc1cc(C(=O)/C=C/c2cc(O)c(O)c([N+](=O)[O-])c2)cc(OC)c1OC | 5 | IC50 (Tyrosine 3-monooxygenase): 21000 nM; IC50 [5]: > 50000 nM; IC50 [6]: > 50000 nM; IC50 [7]: > 50000 nM; IC50 [8]: > 50000 nM
CN(C)C(=O)/C(C#N)=C/c1cc(O)c(O)c([N+](=O)[O-])c1 | 18 | –
O=[N+]([O-])c1cc(O)c(O)c([N+](=O)[O-])c1 [3,5-DINITROCATECHOL (OR-486)] | – | IC50 [2]: 150000 nM
N#Cc1cc(C(=O)NC23CC4CC(CC(C4)C2)C3)cc(O)c1O | 90 | –
O=C1/C(=C/c2cc(O)c(O)c([N+](=O)[O-])c2)CC/C1=C\c1cc(O)c(O)c([N+](=O)[O-])c1 | 3 | –
O=C(O)CCCCc1cc(O)c(O)c([N+](=O)[O-])c1 | 90 | –
O=C(NC12CC3CC(CC(C3)C1)C2)c1cc(O)c(O)cc1Cl | 2700 | –
CC(=O)/C(C)=C/c1cc(O)c(O)c([N+](=O)[O-])c1 | 12 | –
O=C(O)c1cc(O)c(O)c([N+](=O)[O-])c1 | 620 | –
N#Cc1cc(C=O)cc(O)c1O | 160 | –
CC(C)C(=O)c1ccc(O)c(O)c1 | 6000 | IC50 (Tyrosine 3-monooxygenase): 24000 nM; IC50 [5]: > 50000 nM; IC50 [6]: > 50000 nM; IC50 [7]: > 50000 nM; IC50 [8]: > 50000 nM
O=C(NC12CC3CC(CC(C3)C1)C2)c1cc(O)c(O)c(Cl)c1 | 400 | –
CS(=O)(=O)c1cc(C=O)cc(O)c1O | 20000 | –
O=Cc1cc(O)c(O)c(C(F)(F)F)c1 | 2300 | –
N#Cc1cc(O)c(O)c([N+](=O)[O-])c1 | 30 | –
O=C(NC12CC3CC(CC(C3)C1)C2)c1ccc(O)c(O)c1Cl | 12000 | –
